How the values were obtained:
[1] = molecular target: T1, ATGL (Mus musculus, UniProt Q8BJ56); assay: Lipase assay (triglyceride hydrolase assay) with candidate inhibitors; assay type: biochemical; settings: versus control (DMSO), FIG. 9
T1 construct: The lipid-free infranatant (cytosolic fraction) was collected and, used for triacyl-glycerol (TG) hydrolase assays; from tissue; host or cells: mouse white adipose tissue, cytosolic fraction (100,000 g infranatant)
T1 sequence (Q8BJ56 1-486): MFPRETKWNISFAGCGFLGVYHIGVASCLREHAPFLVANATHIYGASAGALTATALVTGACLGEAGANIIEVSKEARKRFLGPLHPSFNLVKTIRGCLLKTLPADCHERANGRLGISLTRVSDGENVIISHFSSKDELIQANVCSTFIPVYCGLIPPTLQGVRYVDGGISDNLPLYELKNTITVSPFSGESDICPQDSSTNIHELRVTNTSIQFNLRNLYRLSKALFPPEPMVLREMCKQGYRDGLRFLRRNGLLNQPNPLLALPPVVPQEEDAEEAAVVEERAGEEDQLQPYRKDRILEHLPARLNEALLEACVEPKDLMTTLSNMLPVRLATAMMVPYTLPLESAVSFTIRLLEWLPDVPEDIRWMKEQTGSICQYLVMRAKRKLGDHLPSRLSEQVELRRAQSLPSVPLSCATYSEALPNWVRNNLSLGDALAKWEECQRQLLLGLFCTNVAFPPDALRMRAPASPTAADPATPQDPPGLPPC
Procedure: Mesenteric, retroperitoneal, omental and, gonadal white adipose tissues (WAT) of wild-type (wt), Adipose Tri-Glyceride Lipase-knockout (ATGL-ko) and, Hormone Sensitive Lipase-knockout (HSL-ko) mice were removed surgically and, washed in phosphate-buffered saline (PBS) containing 1 mM ethylenediaminetetraacetic-acid (EDTA). The tissue was homogenized in lysis buffer (0.25 M sucrose, 1 mM EDTA, 1 mM dithiothreitol, 20 μg/ml leupeptin, 2 μg/ml antipain, 1 μg/ml pepstatin, pH 7.0) using a Magna Lyser (Roche diagnostics GmbH, Mannheim, Germany). The WAT lysate was centrifuged at 100,000 g for 1 hour (h) at 4° C. The lipid-free infranatant (cytosolic fraction) was collected and, used for triacyl-glycerol (TG) hydrolase assays. The substrate for the measurement of lipase activity containing triolein and [9, 10-3H(N)-triolein] (NEN Life Science Products, Boston, Mass.) as radioactive tracer was emulsified with phosphatidylcholine/phosphatidylinositol using a conventional ultrasound sonicator. The cytosolic fractions supplemented with or, without a specific inhibitor for HSL were incubated at 37° C. for 60 min under constant shaking. The reaction was terminated by addition of 3.25 ml methanol/chloroform/heptane (10:9:7) and, 1 ml of 0.1 M potassium carbonate and, 0.1 M boric acid (pH 10.5). After centrifugation at 800 g for 20 minutes (min) the radioactivity in 1 ml of the upper phase was determined by liquid scintillation counting in a LS 6500 Multi-Purpose Scintillation Counter from Beckman Coulter Inc. (Fullerton, Calif.).
For determination of lipase activity 0.1 ml of cytosolic extracts and 0.1 ml substrate are incubated in a water bath at 37° C. for 60 min. The reaction is terminated by adding 3.25 ml of methanol/chloroform/heptane (10:9:7) and 1 ml of 0.1 M potassium carbonate, 0.1 M boric acid, pH 10.5. After centrifugation (800 g, 20 min) the radioactivity in 1 ml of the upper phase is determined by liquid scintillation counting. Neutral lipase activity is measured in 50 mM potassium phosphate buffer, pH 7.0 and 2.5% defatted BSA. The substrate for neutral TG lipase activity contained 33 nmol triolein/assay with [9,10-^3H(N)]-triolein (40.000 cpm/nmol, NEN Life Science Products) as radioactive tracer for COS-7 cells and 167 nmol/assay for 3T3-L1 adipocytes (7300 cpm/nmol). The substrates for cholesteryl esterase and retinyl esterase activity contained 10 nmol/assay of cholesteryl oleate or retinyl palmitate and the corresponding tracers cholesteryl [9,10-^3H]-oleate or retinyl [9,10-^3H(N)]-palmitate (50.000 cpm/nmol). For determination of phospholipase activity in cytosolic extracts the substrate contained 20 nmol/assay phosphatidylcholine and [dipalmitoyl-1-^14C]-phosphatidylcholine (12.000 cpm/nmol). […]

[2] = molecular target: T2, iPLA2γ (Homo sapiens, UniProt Q9NP80); settings: cited from earlier work
T2 sequence (Q9NP80 1-782): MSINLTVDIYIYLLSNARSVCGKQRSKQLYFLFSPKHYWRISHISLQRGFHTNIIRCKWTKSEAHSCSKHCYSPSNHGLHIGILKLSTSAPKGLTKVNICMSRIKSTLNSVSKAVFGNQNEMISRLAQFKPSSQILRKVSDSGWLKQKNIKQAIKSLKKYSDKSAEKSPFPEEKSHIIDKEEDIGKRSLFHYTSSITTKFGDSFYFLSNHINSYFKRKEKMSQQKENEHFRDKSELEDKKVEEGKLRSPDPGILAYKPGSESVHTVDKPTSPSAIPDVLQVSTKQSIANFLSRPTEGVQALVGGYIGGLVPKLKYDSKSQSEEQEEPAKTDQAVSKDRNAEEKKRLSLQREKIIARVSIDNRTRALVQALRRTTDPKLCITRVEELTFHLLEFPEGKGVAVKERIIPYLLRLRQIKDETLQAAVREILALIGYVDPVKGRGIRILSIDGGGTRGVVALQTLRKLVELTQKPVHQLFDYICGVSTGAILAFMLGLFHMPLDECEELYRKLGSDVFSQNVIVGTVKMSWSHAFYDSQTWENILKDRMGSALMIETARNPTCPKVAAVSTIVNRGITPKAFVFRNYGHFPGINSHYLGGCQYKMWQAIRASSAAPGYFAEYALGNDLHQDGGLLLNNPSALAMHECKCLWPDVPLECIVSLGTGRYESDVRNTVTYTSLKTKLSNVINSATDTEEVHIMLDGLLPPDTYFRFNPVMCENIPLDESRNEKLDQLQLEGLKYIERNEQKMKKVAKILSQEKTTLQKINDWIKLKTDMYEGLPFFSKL

[3] = molecular target: T3, iPLA2β (Homo sapiens, UniProt O60733); settings: cited from earlier work
T3 sequence (O60733 1-806): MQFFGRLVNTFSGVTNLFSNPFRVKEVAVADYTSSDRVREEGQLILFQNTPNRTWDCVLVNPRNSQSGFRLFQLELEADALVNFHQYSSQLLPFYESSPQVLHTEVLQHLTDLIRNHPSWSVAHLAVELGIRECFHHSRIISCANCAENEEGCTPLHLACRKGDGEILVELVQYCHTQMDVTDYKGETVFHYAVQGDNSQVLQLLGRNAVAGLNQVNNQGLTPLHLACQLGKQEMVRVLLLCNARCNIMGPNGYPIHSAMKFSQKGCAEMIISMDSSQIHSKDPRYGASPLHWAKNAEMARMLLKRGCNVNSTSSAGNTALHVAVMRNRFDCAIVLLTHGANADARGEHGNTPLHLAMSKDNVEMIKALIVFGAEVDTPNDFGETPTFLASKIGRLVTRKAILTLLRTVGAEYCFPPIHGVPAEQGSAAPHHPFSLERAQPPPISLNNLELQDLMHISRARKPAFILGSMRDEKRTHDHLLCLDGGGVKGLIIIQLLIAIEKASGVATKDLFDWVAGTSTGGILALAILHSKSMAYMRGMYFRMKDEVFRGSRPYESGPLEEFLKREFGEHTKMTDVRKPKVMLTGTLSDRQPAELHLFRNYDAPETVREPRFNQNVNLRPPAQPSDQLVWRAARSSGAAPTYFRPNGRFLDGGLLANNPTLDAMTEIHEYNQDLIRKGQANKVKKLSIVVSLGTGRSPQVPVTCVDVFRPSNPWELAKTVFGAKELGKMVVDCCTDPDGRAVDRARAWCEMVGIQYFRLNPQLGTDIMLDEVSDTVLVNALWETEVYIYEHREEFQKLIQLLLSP

[4] = molecular target: T4, ATGL (Homo sapiens, UniProt Q96AD5); settings: expressed ATGL or native ATGL in hepatocytes; cited from earlier work
T4 sequence (Q96AD5 1-504): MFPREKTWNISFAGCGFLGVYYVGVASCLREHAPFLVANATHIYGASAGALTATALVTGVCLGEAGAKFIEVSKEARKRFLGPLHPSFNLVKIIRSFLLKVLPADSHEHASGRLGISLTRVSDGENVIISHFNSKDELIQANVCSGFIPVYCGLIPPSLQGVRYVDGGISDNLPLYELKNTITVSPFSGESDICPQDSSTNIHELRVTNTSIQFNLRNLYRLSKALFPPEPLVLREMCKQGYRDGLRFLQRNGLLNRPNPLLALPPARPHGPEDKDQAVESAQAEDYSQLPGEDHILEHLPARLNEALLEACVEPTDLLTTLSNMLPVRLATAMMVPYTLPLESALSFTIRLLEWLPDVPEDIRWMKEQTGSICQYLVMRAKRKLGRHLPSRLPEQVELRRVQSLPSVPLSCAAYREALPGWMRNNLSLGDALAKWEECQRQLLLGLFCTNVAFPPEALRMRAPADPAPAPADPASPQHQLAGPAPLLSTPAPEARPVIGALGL

SMILES	inhibition of ATGL (ATGL activity, % control) [1]	inhibition of iPLA2γ [2]	inhibition of iPLA2β [3]	ATGL inhibition activity [4]
COC(=O)C(O)(c1cc(C)c(O)c(C)c1)C(F)(F)F (stereo not shown) [Compound 3]	inhibit ATGL			
O=C1O/C(=C/Br)CC[C@@H]1c1cccc2ccccc12 [(R)-Bromoenol lactone]		inhibits	inhibits	ATGL inhibition activity

Further lines, with some results ahead:

inhibition of ATGL (ATGL activity, % control) [1]	SMILES	inhibition of iPLA2γ [2]	inhibition of iPLA2β [3]	ATGL inhibition activity [4]
inhibit ATGL	CN(C)/N=C/c1ccccc1OC(=O)c1cccnc1 [Compound 7]			
inhibit ATGL	CCOC(=O)c1nn(-c2ccc(OCC)cc2)cc1O [Compound 9]			
largest degree of inhibition	Oc1ccc(/C=N/N2CCN(c3ccccc3)CC2)cc1O [Compound 4]			

From patent publication US8993509B2, “Method for treatment of cachexia by administering inhibitors of adipose triglyceride lipase expression or activity” (priority 2010, dated 2015)
